Experimental data: ChEMBL document CHEMBL1201862, “PubChem BioAssay data set” (2004)
The source made the active and inactive calls.

Tests used:
Steroidogenic factor 1 = Steroidogenic factor 1 (Homo sapiens, UniProt Q13285); experiment: Counterscreen for inverse agonists of the liver receptor homolog-1 (LRH-1; NR5A2): Luminescence-based cell-based high throughput dose response assay to identify inverse agonists of the Steroidogenic Factor 1 Nuclear Receptor (SF1; NR5A1).; assay type: functional
[1] = biological target: Nuclear receptor subfamily 5 group A member 2 (Homo sapiens, UniProt O00482); assay type: functional, cell-based;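 further: HEK293T cells transfected with LRH-1 and a StAR promoter luciferase reporter; potency for inhibitors that lower LRH-1 driven reporter light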
Nuclear receptor subfamily 5 group A member 2, sequence (O00482 whole entry): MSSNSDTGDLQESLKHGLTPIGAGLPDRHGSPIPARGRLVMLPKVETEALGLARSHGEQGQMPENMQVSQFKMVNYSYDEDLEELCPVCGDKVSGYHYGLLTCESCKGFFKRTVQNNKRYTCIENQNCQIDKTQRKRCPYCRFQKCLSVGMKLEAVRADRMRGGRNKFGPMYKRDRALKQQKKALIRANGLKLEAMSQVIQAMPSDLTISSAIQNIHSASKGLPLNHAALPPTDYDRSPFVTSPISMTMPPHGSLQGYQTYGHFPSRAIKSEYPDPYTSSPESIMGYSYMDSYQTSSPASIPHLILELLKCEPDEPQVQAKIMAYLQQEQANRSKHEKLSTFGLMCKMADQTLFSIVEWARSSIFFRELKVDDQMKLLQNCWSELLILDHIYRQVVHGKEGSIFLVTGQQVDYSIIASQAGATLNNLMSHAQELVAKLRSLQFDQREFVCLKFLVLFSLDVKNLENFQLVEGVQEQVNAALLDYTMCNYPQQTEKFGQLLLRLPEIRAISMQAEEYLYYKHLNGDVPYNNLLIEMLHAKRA

[2] = nonselective StAR promoter luciferase inhibitors – cell-based, luminescence, luciferase reporter, counter-screen for LRH-1 inverse agonist project, dose response (AID 651969); assay type: functional
[3] = biological target: T1, Corticotropin-releasing factor receptor 2/Corticotropin-releasing factor-binding protein (Homo sapiens, UniProt P24387+Q13324); experiment: Dose Response confirmation of uHTS hits for small molecule antagonists of the CRF-binding protein and CRF-R2 receptor complex.; assay type: functional; conditions: read-out: IC50_Mean
T1 sequence (Q13324 whole entry): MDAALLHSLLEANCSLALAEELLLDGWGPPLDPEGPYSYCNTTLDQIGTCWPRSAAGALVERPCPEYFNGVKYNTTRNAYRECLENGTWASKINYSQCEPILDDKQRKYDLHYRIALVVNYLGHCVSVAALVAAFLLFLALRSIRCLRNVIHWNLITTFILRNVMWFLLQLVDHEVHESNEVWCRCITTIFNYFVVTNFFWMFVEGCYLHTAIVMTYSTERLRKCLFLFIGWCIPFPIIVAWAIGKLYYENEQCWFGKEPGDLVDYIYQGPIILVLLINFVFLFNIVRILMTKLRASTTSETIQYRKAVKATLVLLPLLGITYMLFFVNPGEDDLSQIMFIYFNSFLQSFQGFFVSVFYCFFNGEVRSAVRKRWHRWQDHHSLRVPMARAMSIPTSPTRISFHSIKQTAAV
T1 sequence (P24387 whole entry): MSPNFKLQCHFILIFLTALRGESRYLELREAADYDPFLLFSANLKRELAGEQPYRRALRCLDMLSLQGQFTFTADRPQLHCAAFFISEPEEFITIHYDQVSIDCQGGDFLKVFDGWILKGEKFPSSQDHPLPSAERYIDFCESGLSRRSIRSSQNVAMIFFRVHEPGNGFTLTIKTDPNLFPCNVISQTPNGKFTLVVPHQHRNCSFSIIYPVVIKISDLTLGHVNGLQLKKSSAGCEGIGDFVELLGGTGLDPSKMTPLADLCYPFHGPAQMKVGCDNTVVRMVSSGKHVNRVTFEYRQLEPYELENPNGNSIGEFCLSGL

[4] = biological target: T1, Corticotropin-releasing factor receptor 2/Corticotropin-releasing factor-binding protein; experiment: activators of CRF receptor 2 with binding protein – uHTS hits, confirmation (AID 602473); assay type: functional; conditions: read-out: EC50_Mean
[5] = blockers of CRF-binding protein–CRF-R2 complex – cell-based, uHTS hits, 384-well, dose response (AID 651639); assay type: functional, Homo sapiens; conditions: read-out: IC50_Mean
[6] = biological target: T2, Hepatocyte nuclear factor 4-alpha (Homo sapiens, UniProt P41235); assay type: functional, cell-based;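 further: biochemical luminescence-based dose-response counterscreen measuring inhibition of HNF4 dimerization, run alongside a screen for blockers of ABHD5–perilipin-5 interaction; split luciferase complementation of HNF4 fusion proteins in cell lysate measuring dimerization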
T2 sequence (P41235 whole entry): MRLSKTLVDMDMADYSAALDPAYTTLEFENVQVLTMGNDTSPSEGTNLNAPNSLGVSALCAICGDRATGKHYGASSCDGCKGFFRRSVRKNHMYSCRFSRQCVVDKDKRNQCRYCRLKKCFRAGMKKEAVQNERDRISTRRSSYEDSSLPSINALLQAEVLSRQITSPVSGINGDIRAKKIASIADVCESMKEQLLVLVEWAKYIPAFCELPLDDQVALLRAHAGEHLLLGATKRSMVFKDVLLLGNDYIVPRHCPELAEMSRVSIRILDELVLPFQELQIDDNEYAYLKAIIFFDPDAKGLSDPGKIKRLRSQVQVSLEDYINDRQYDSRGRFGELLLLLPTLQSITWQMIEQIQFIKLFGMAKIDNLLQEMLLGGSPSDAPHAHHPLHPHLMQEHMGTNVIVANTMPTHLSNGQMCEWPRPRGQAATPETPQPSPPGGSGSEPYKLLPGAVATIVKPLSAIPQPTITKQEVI

[7] = biological target: T3, RNA-binding protein pos-1 (Caenorhabditis elegans, UniProt G5EF15); experiment: disruptors of C. elegans POS-1 RNA interaction – biochemical, fluorescence polarization, dose response (AID 1964);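 further: purified POS-1 fused to maltose binding protein made in E. coli; potency of compounds blocking POS-1 binding to fluorescent RNA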
T3 sequence (G5EF15 whole entry): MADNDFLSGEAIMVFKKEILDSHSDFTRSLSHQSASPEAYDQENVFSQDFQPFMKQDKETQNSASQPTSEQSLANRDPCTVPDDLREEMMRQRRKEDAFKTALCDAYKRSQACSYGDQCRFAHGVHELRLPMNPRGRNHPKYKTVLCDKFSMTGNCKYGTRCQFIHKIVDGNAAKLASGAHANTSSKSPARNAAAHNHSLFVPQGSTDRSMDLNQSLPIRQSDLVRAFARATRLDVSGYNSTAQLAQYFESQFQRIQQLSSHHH

[8] = bead-based luminescence quenchers, dual-tagged ARNT – biochemical, AlphaScreen, cherry-pick, artefact control for ARNT-TACC3 interaction inhibitor project, dose response (AID 651705); assay type: functional;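 further: AlphaScreen bead proximity signal that flags compounds interfering with the detection technology; potency reflects signal decrease which marks the compound as an assay artifact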
[9] = biological target: T4, Zinc finger protein mex-5 (Caenorhabditis elegans, UniProt Q9XUB2); experiment: potency of MEX-5 RNA-binding blockers – biochemical, C. elegans, fluorescence polarization, dose response (AID 1960)
T4 sequence (Q9XUB2 whole entry): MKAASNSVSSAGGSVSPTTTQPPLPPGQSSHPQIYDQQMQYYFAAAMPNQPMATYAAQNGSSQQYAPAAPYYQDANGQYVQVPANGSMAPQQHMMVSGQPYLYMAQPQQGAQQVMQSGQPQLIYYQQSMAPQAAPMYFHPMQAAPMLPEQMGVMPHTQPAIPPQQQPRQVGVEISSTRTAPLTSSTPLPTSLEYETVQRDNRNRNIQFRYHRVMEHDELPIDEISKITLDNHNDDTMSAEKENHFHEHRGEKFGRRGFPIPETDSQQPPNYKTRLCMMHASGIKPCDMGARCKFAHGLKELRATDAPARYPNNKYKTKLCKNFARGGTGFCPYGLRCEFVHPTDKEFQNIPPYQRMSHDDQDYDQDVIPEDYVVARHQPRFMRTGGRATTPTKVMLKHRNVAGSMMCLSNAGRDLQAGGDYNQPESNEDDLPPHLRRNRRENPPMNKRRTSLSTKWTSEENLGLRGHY

[10] = viability loss in HEK293T cells – cell-based, cherry-picks, cytotoxicity control for HIV Vif inhibitor project, dose response (AID 652208); assay type: functional
[11] = Counterscreen for inhibitors of Trypanosoma brucei methionyl tRNA synthetase (MetRS): Luminescence-based cell-based high throughput dose response assay to identify compounds that are cytotoxic to Jurkat human T lymphocyte cells.; assay type: functional

Steroidogenic factor 1, sequence (Q13285 whole entry): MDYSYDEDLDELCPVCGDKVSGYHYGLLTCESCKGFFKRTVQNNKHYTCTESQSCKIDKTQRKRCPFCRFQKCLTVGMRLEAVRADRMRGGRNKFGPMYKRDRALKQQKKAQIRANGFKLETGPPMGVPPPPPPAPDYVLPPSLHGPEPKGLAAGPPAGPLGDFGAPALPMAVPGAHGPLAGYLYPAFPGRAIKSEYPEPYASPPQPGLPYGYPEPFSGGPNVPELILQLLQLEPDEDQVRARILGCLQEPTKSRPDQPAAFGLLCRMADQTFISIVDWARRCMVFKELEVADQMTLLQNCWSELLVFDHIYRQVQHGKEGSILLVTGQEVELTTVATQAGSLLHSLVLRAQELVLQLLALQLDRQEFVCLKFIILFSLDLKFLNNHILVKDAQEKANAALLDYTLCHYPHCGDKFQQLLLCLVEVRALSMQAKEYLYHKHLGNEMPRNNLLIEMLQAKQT

O=C(Nc1ccccc1C(=O)Nc1nccs1)c1ccccc1
IC50 (Steroidogenic factor 1): 9.51 µM (active) | IC50 [1]: 9.83 µM (active) | IC50 [2]: 26.4 µM (inactive)

CC(C)(C)OC(=O)N1CCC(c2cc(O)n3ncc(C(=O)NC4CCCC4)c3n2)CC1
IC50 [3]: 6.5 µM (active) | EC50 [4]: > 53 µM (inactive) | IC50 [5]: 9.87 µM (active)

Cc1cccc(C)c1NC(=O)C(c1ccc(C(F)(F)F)cc1)n1c(=O)c(-c2ccco2)nc2ccccc21 (stereo unspecified)
IC50 [6]: 2.56 µM (active)

O=C(NNc1ccccn1)C(=O)NNS(=O)(=O)c1ccc(F)cc1
EC50 [7]: > 300 µM (not active) | AC50 [8]: 122 µM (active) | EC50 [9]: > 300 µM (inconclusive)

COc1ccc(OCc2cn(CC(=O)c3ccc(O)cc3)nn2)cc1
IC50 [6]: 6 µM (active)

COc1ccc(C=C2CS(=O)(=O)CC(=Cc3ccc(OC)cc3)C2=O)cc1
AC50 [10]: 4.33 µM (active)

O=C(OCC(=O)c1c[nH]c2ccccc12)c1ccc(OC(F)F)cc1
IC50 [11]: 83.3 µM (inactive)

COc1ccc(N2/C(=C/C(C)=O)NC(=O)c3c(C)cc(C)nc32)cc1
IC50 (Steroidogenic factor 1): 5.42 µM (active) | IC50 [1]: 8.47 µM (active) | IC50 [2]: 35.9 µM (inactive)
